Measurements published in article PMC7948503, “Optimization of a peptide ligand for the adhesion GPCR ADGRG2 provides a potent tool to explore receptor biology” (The Journal of Biological Chemistry, 2020).
Each block holds one molecule with its values, some of them ahead of it. Starred links: 1 amine or outer side, 2 acyl side, 3 side chain; linkers in the order of their positions; H or OH if unused. Positions of bridges follow the written chain, without caps; N, C: chain ends. Non-standard residues stand in square brackets, D forms with d. Residues, ends and D or L forms follow the SMILES beside them. No end group written: not given here. X1 = CC(=O)NC(C(=O)OC(C(C)C)C(N[*:1])C(=O)[*:2])C(O)C(C)C; Phe(4-Me) = Cc1ccc(C[C@H](N)C(=O)O)cc1; 1Nal = N[C@@H](Cc1cccc2ccccc12)C(=O)O; PhLac = O=C(O)[CH](O)Cc1ccccc1; NMeT = CN[CH](C(=O)O)[CH](C)O; NMeA = CN[CH](C)C(=O)O; NMeDha = C=C(NC)C(=O)O

Assays:
ADGRG2-FL = target: T1, ADGRG2-FL (Mus musculus, UniProt Q8CJ12); experiment: GloSensor cAMP assay, HEK293 transfected with ADGRG2-FL; assay type: cell-based; conditions: for p15 activity after alanine substitution (cAMP level): alanine scanning, 100 μM peptide, HEK293 ADGRG2-FL, Glosensor, compared with p15-WT, repeated six times; for EC50: HEK293 transfected with ADGRG2-FL, increasing peptide concentration, cAMP Glosensor, repeated 6 times
T1 construct: Wildtype ADGRG2 full-length (ADGRG2-FL) was cloned from mouse total cDNA libraries; expressed in transfected cells; host or cells: HEK293
T1 sequence (Q8CJ12 38-995 isoform Q8CJ12-3 limits assumed): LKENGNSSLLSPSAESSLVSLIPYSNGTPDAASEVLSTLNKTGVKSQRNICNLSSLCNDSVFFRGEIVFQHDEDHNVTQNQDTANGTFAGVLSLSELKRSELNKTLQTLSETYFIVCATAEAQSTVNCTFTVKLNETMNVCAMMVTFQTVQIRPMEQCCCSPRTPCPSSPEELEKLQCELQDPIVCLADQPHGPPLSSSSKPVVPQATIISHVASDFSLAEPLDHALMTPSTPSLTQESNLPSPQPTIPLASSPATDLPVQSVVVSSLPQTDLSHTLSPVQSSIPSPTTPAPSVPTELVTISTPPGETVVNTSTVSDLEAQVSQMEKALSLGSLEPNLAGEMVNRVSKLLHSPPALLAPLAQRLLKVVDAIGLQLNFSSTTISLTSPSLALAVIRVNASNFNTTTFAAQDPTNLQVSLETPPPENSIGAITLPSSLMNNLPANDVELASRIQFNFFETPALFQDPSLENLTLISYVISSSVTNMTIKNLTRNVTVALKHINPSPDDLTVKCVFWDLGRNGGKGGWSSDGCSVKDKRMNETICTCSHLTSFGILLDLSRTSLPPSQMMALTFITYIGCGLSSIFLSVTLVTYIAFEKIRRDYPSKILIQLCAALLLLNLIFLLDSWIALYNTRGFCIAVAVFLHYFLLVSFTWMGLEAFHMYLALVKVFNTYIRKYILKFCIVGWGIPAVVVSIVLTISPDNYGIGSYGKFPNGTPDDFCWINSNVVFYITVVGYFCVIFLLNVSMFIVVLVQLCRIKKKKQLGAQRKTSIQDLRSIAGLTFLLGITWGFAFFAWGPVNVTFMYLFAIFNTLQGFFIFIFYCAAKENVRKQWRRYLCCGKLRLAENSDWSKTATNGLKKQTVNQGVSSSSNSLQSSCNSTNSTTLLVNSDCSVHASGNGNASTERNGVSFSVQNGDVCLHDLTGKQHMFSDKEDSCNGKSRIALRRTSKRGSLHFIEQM
Text: (§1) Wildtype ADGRG2 full-length (ADGRG2-FL) was cloned from mouse total cDNA libraries using the following primers: forward, […]; reverse, […], and then ADGRG2-FL, ADGRG2 C-terminal truncation mutant (ADGRG2-β), and ADGRG2-ΔGPS-β (the entire ECD of ADGRG2 was deleted) were subcloned into the pcDNA3.1 expression vector. The ADGRG2-ΔGPS-β mutants (T610A, Y611A, C614A, S661A, W662A, I663A, L665A, Y666A，N667A, F671A, L679A, L683A, I730A, V731A, F741A, F747A, W757A, I758A, N759A, S760A, V762A, F764A, Y765A, V768A, V769A, F772A, V774A, W824A, F826A, F828A, F829A, V834A, V836A, F838A, M839A, I844A, F845A) were generated using a QuikChange Mutagenesis Kit (Stratagene). All mutations were verified by DNA sequencing.
(§2) Human embryonic kidney 293 (HEK293) cells were maintained in Dulbecco’s modified Eagle’s medium supplemented with 10% fetal bovine serum, penicillin (100 IU/ml), and streptomycin (100 μg/ml) as described ([6], [38]). For receptor or other protein expression, plasmids carrying the desired genes were transfected into cells using Lipofectamine 2000 (Invitrogen).
(§3) The Glosensor cAMP assay was performed as described ([6], [39], [40]). HEK293 cells were transfected with the GloSensor plasmid and the desired expression plasmids in 24-well dishes. Twenty-four hours after transfection, the cells were plated on 96-well plates at a cell density of 20,000 cells/well. The cells were maintained in Dulbecco’s modified Eagle’s medium for another 24 h, washed with PBS, and then incubated with 100 μl of solution containing 10% fetal bovine serum, 2% (v/v) GloSensor cAMP reagent, and 88% CO2-independent medium in each well for 2 h. The cAMP signal was examined using a luminescence counter (Mithras LB 940).

ADGRG2-ΔGPS-β = target: T2, ADGRG2-ΔGPS-β (Mus musculus, UniProt Q8CJ12); experiment: GloSensor cAMP assay, HEK293 transfected with ADGRG2-ΔGPS-β; assay type: cell-based; conditions: cAMP Glosensor; for EC50: HEK293 transfected with ADGRG2-ΔGPS-β, increasing peptide concentration, repeated six times; for EC50 compared with wildtype p15 or other mutants: concentration-response curves, ADGRG2-ΔGPS-β
T2 construct: the entire ECD (including the entire GPS motif) was removed (ADGRG2-ΔGPS-β); expressed in transfected cells; host or cells: HEK293
T2 sequence (Q8CJ12 618-1009 limits assumed, stated change not applied): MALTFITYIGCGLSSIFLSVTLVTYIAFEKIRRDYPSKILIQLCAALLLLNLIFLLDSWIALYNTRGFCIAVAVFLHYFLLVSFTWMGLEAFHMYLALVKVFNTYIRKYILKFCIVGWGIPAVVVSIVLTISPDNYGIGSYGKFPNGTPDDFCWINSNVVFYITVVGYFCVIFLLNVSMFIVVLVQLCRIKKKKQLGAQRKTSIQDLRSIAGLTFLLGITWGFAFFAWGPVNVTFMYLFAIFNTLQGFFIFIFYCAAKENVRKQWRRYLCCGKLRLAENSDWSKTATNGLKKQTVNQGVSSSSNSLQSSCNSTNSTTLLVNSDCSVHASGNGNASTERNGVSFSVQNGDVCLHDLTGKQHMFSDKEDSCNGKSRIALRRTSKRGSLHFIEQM
Text: as §1, §2, §3

[1] = target: Rluc-ADGRG2-ΔGPS-β wildtype (mouse)
ADGRG2 = experiment: CalfluxVTN Ca2+ assay; assay type: cell-based, mouse; conditions: Gq/11 selective inhibitor
Experimental: For the Ca^2+ assays, HEK293 cells in 24-well dishes were cotransfected with plasmids encoding ADGRG2 or its mutants, CalfluxVTN constructs were used at a 6:1 ratio. Empty vector pcDNA3.1(+) was used to normalize the total amount of transfected plasmid DNA. The transfection and CalfluxVTN Ca^2+ assays were performed as previously reported ([28], [29], [41]) with minor modifications. In brief, 24 h post transfection, cells were harvested and distributed in 96-well flat-bottomed white microplates. After another 24 h, the cells were processed accordingly and then were added with the Nluc substrate furimazine (5 μM). The BRET signal was calculated by measuring the ratio of the light emitted by the Venus reporter (535 nm) relative to light emitted by the Nluc reporter (475 nm). The average baseline value (basal BRET ratio) recorded prior to agonist stimulation was subtracted from the experimental BRET signal values to obtain the ΔBRET ratio.

Molecule: R11A: p15 alanine-scan mutant R11A (TSFGILLDLSATSLP)
p15 activity after alanine substitution (cAMP level) (ADGRG2-FL): greatly impaired p15 activity

Molecule: CC[C@H](C)[C@H](NC(=O)CNC(=O)[C@H](Cc1ccc(C)cc1)NC(=O)[C@H](CO)NC(=O)[C@@H](N)[C@@H](C)O)C(=O)N[C@@H](CC(C)C)C(=O)N[C@@H](CC(C)C)C(=O)N[C@@H](CC(=O)O)C(=O)N[C@@H](CC(C)C)C(=O)N[C@@H](CO)C(=O)N[C@@H](CCCNC(=N)N)C(=O)N[C@H](C(=O)N[C@@H](CO)C(=O)N[C@@H](CC(C)C)C(=O)N1CCC[C@H]1C(=O)O)[C@@H](C)O [F3Phe(4-Me)] (H-TS[Phe(4-Me)]GILLDLSRTSLP-OH)
EC50 compared with wildtype p15 or other mutants (ADGRG2-ΔGPS-β): lower EC50 value than wildtype p15

Molecule: FITC-conjugated VPM-p15 (ADGRG2 Stachel peptide p15 T1V/F3Phe(4-Me))
EC50 of cAMP accumulation (GloSensor assay), HEK293 cells transfected with ADGRG2-ΔGPS-β, increasing concentrations of VPM-p15 (without FITC) [1]: 1.41 µM | fold change of the EC50 of cAMP accumulation (GloSensor assay) against the wildtype p15 peptide, ADGRG2-ΔGPS-β in HEK293 cells [1]: 170 fold

Molecule: CC[C@H](C)[C@H](NC(=O)CNC(=O)[C@H](Cc1cccc2ccccc12)NC(=O)[C@H](CO)NC(=O)[C@@H](N)[C@@H](C)O)C(=O)N[C@@H](CC(C)C)C(=O)N[C@@H](CC(C)C)C(=O)N[C@@H](CC(=O)O)C(=O)N[C@@H](CC(C)C)C(=O)N[C@@H](CO)C(=O)N[C@@H](CCCNC(=N)N)C(=O)N[C@H](C(=O)N[C@@H](CO)C(=O)N[C@@H](CC(C)C)C(=O)N1CCC[C@H]1C(=O)O)[C@@H](C)O [F3(1-Nal)] (H-TS[1Nal]GILLDLSRTSLP-OH)
EC50 compared with wildtype p15 or other mutants (ADGRG2-ΔGPS-β): lower EC50 value than wildtype p15

Molecule: F3A: p15 alanine-scan mutant F3A (TSAGILLDLSRTSLP)
p15 activity after alanine substitution (cAMP level) (ADGRG2-FL): greatly impaired p15 activity

Molecule: C=C1C(=O)NC(C)C(=O)N(C)C(C)C(=O)NC(C(OC(=O)C(NC(C)=O)C(O)C(C)C)C(C)C)C(=O)N(C)C(C(C)OC)C(=O)OC(C)C(NC(C)=O)C(=O)OC(Cc2ccccc2)C(=O)N1C (centres unmarked) [YM-254890] (Ac-T[PhLac][NMeDha]A[NMeA][X1][NMeT](Me); ester 1-C; configuration not given here)
inhibition of p15-elicited rise in intracellular calcium (ADGRG2): inhibited

Molecule: VSFGILLDLSRTSLP [ADGRG2 Stachel peptide p15 T1V]
cAMP accumulation (GloSensor assay), HEK293 cells transfected with ADGRG2-ΔGPS-β, 100 μM peptide, against wildtype p15 [1]: 3 fold

Further lines, with some results ahead:

EC50 (ADGRG2-ΔGPS-β): 4.7 µM
Molecule: CC[C@H](C)[C@H](NC(=O)CNC(=O)[C@H](Cc1cccc2ccccc12)NC(=O)[C@H](CO)NC(=O)[C@@H](N)C(C)C)C(=O)N[C@@H](CC(C)C)C(=O)N[C@@H](CC(C)C)C(=O)N[C@@H](CC(=O)O)C(=O)N[C@@H](CC(C)C)C(=O)N[C@@H](CO)C(=O)N[C@@H](CCCNC(=N)N)C(=O)N[C@H](C(=O)N[C@@H](CO)C(=O)N[C@@H](CC(C)C)C(=O)N1CCC[C@H]1C(=O)O)[C@@H](C)O [T1V/F3(1-Nal)] (H-VS[1Nal]GILLDLSRTSLP-OH)
EC50 compared with wildtype p15 or other mutants (ADGRG2-ΔGPS-β): significant lower EC50 than other mutants

EC50 (ADGRG2-FL): 175 µM | EC50 (ADGRG2-ΔGPS-β): 243 µM
Molecule: TSFGILLDLSRTSLP [p15, reference compound]

EC50 (ADGRG2-FL): 274 µM
Molecule: TSFGILLDLSRTSAP [L14A]

EC50 compared with wildtype p15 or other mutants (ADGRG2-ΔGPS-β): lower EC50 value than wildtype p15
Molecule: VSFGILLDLSRTSLP [T1V]
